US20220144847A1, “HETEROCYCLIC COMPOUND, PHARMACEUTICAL COMPOSITION COMPRISING SAME, PREPARATION METHOD THEREFOR, AND USE THEREOF” (Sichuan Kelun-Biotech Biopharmaceutical Co., Ltd., priority 2019, published 2022)

Each molecule was assayed against RET-V804M (Homo sapiens, UniProt P07949, V804M) (assay: RET inhibition experiment (HTRF KinEASE-TK kit), mutant RET-V804M). Conditions: 10 nM (Table 2); read-out: Inhibition rate on RET-V804M.
Type: biochemical
Protocol: Experimental method: According to the instructions of the HTRF KinEASE-TK kit (Cisbio), the compounds of the present disclosure were tested for their inhibitory effects on the activity of wild-type RET enzyme, mutant RET enzyme (RET-V804M, RET-V804L, and RET-M918T) and fusion-type RET enzyme (RET-CCDCl6). After pre-incubation of different RET enzymes and different concentrations of the test compounds at room temperature for 30 min, a substrate and adenosine triphosphate (ATP) were added to initiate the reaction. After incubation at room temperature for 40 min, TK antibody-cryptate and streptavidin-XL665 were added, and the test was performed after incubation at room temperature for 45 min. With the solvent group (DMSO) as the negative control and the buffer group (without RET enzyme) as the blank control, the relative inhibitory activity percentages (i.e., inhibition rates) of different concentrations of the compounds were computed as per the following formula:
Relative inhibitory activity percentage=1−(compound group of different concentrations−blank control)/(negative control−blank control)*100%
The relative inhibitory activity percentages of different concentrations of the compounds were plotted with respect to the compound concentrations, and the curve was fitted according to a four-parameter model to compute the IC50 value as per the following formula:
y=min+(max−min)/(1+(x/IC50)^(−Hillslope))
where y is the relative inhibitory activity percentage, max is the maximum value of the fitted curve, min is the minimum value of the fitted curve, x is the logarithmic concentration of the compound, and Hillslope is the slope of the curve.

RET-V804M, sequence (P07949 29-1114 V804M): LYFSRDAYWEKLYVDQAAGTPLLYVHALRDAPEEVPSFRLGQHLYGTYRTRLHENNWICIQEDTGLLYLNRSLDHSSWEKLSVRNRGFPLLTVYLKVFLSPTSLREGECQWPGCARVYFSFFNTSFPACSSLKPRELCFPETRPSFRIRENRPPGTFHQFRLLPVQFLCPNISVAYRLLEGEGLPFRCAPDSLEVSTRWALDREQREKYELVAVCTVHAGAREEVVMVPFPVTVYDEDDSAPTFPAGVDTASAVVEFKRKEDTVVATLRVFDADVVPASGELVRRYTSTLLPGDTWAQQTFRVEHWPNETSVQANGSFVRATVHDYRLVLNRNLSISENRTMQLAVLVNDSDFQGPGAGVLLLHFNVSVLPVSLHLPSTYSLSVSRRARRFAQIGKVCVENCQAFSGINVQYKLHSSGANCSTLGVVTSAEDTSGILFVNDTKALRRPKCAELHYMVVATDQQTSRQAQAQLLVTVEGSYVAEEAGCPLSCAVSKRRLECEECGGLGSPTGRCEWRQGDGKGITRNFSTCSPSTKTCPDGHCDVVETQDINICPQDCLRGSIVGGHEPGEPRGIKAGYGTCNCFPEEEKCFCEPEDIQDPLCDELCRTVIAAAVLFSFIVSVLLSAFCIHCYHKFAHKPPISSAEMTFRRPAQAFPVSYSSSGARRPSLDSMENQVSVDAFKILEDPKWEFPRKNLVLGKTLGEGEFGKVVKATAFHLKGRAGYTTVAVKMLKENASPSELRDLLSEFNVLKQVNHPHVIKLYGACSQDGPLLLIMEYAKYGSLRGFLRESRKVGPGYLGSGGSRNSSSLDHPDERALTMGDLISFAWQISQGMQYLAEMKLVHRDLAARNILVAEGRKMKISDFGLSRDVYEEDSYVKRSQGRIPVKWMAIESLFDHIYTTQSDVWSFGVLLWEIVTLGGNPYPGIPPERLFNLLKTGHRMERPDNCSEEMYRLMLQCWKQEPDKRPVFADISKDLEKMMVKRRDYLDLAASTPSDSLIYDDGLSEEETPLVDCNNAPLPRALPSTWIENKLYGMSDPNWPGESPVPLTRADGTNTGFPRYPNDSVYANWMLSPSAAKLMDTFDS

SMILES	inhibition at 0.01 µM [%]
Cc1cc(Nc2cc(C)[nH]n2)nc(-c2ccc(N3CC4CC(C3)N4Cc3ccc(-n4ncc(Cl)c4C)nc3)nc2)n1 [Compound 28′, 2-(6-(6-((6-(4-chloro-5-methyl-1H-pyrazol-1-yl)pyridin-3-yl)methyl)-3,6-diazabicyclo[3.1.1]heptan-3-yl)pyridin-3-yl)-6-methyl-N-(5-methyl-1H-pyrazol-3-yl)pyrimidin-4-amine]	34

Same assay, conditions: 100 nM (Table 2); read-out: Inhibition rate on RET-V804M

SMILES	inhibition at 0.1 µM [%]
Cc1ccc(CN2C3CC2CN(c2ccc(-c4nc(C)cc(Nc5cc(C)[nH]n5)n4)cn2)C3)cn1 [Compound 16, 6-methyl-N-(5-methyl-1H-pyrazol-3-yl)-2-(6-(6-((6-methylpyridin-3-yl)methyl)-3,6-diazabicyclo[3.1.1]heptan-3-yl)pyridin-3-yl)pyrimidin-4-amine]	92
COc1cncc(CN2C3CC2CN(c2ccc(-c4nc(C)cc(Nc5cc(C)[nH]n5)n4)cn2)C3)c1 [Compound 18, 2-(6-(6-((5-methoxypyridin-3-yl)methyl)-3,6-diazabicyclo[3.1.1]heptan-3-yl)pyridin-3-yl)-6-methyl-N-(5-methyl-1H-pyrazol-3-yl)pyrimidin-4-amine]	70
Cc1cc(Nc2cc(C)[nH]n2)nc(-c2ccc(N3CC4CC(C3)N4Cc3cnccc3C)nc2)n1 [Compound 21, 6-methyl-N-(5-methyl-1H-pyrazol-3-yl)-2-(6-(6-((4-methylpyridin-3-yl)methyl)-3,6-diazabicyclo[3.1.1]heptan-3-yl)pyridin-3-yl)pyrimidin-4-amine]	49
COc1ccc(CN2CCN(c3ccc(-c4nc(C)cc(Nc5cc(C)[nH]n5)n4)cn3)CC2)cn1 [Compound 49, 2-(6-(4-((6-methoxypyridin-3-yl)methyl)piperazin-1-yl)pyridin-3-yl)-6-methyl-N-(5-methyl-1H-pyrazol-3-yl)pyrimidin-4-amine]	75
COc1ccc(CN2C3CC2CN(c2ccc(-c4nc(C)cc(Nc5cc(C)[nH]n5)n4)cn2)C3)nc1 [Compound 67, 2-(6-(6-((5-methoxypyridin-2-yl)methyl)-3,6-diazabicyclo[3.1.1]heptan-3-yl)pyridin-3-yl)-6-methyl-N-(5-methyl-1H-pyrazol-3-yl)pyrimidin-4-amine]	82
Cc1cc(Nc2cc(C)[nH]n2)nc(-c2ccc(N3CC4CC(C3)N4Cc3cncc(F)c3)nc2)n1 [Compound 98, 2-(6-(6-((5-fluoropyridin-3-yl)methyl)-3,6-diazabicyclo[3.1.1]heptan-3-yl)pyridin-3-yl)-6-methyl-N-(5-methyl-1H-pyrazol-3-yl)pyrimidin-4-amine]	63
COc1ccc(C(=O)N2CCN(c3ccc(-c4nc(C)cc(Nc5cc(C)[nH]n5)n4)cn3)CC2)cn1 [Compound 110, (6-methoxypyridin-3-yl)(4-(5-(4-methyl-6-((5-methyl-1H-pyrazol-3-yl)amino)pyrimidin-2-yl)pyridin-2-yl)piperazin-1-yl)methanone]	62

Same assay, conditions: read-out: Inhibition rate on RET-V804M

SMILES	inhibition at 0.1 µM [%]
COc1ccc(C(C)N2C3CC2CN(c2ccc(-c4nc(C)cc(Nc5cc(C)[nH]n5)n4)cn2)C3)cc1 (centres unmarked) [Compound 50, 2-(6-(6-(1-(4-methoxyphenyl)ethyl)-3,6-diazabicyclo[3.1.1]heptan-3-yl)pyridin-3-yl)-6-methyl-N-(5-methyl-1H-pyrazol-3-yl)pyrimidin-4-amine]	50
Cc1cc(Nc2cc(C)[nH]n2)nc(-c2ccc(N3CC4CC(C3)N4Cc3ccc(C(F)(F)F)cc3)nc2)n1 [Compound 84, 6-methyl-N-(5-methyl-1H-pyrazol-3-yl)-2-(6-(6-(4-(trifluoromethyl)benzyl)-3,6-diazabicyclo[3.1.1]heptan-3-yl)pyridin-3-yl)pyrimidin-4-amine]	72
Cc1cc(Nc2cc(C)[nH]n2)nc(-c2ccc(N3CC4CC(C3)N4Cc3ccc(C#N)cc3)nc2)n1 [Compound 85, 4-((3-(5-(4-methyl-6-((5-methyl-1H-pyrazol-3-yl)-amino)pyrimidin-2-yl)pyridin-2-yl)-3,6-diazabicyclo[3.1.1]heptan-6-yl)methyl)benzonitrile]	77
